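1) Cells in 96-well plates. 2) Compound, 48 h, 5 concentrations. 3) Linear interpolation between surrounding doses. 4) Unreached endpoint = highest concentration. TGI is the concentration that stops growth completely.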
Assays:
Test in all cases: inhibition of tumour cell growth, NCI panel, 48 h
786-0 renal = system: 786-0 renal
EKVX NSCLC = system: EKVX NSCLC
K-562 leukemia = system: K-562 leukemia
MALME-3M melanoma = system: MALME-3M melanoma
NCI-H23 lung = system: NCI-H23 lung
SK-MEL-2 melanoma = system: SK-MEL-2 melanoma
SK-MEL-5 melanoma = system: SK-MEL-5 melanoma
UO-31 renal = system: UO-31 renal
T-47D breast = system: T-47D breast

SMILES	TGI (786-0 renal) [µM]	TGI (EKVX NSCLC) [µM]	TGI (K-562 leukemia) [µM]	TGI (MALME-3M melanoma) [µM]	TGI (NCI-H23 lung) [µM]	TGI (SK-MEL-2 melanoma) [µM]	TGI (SK-MEL-5 melanoma) [µM]	TGI (UO-31 renal) [µM]	TGI (T-47D breast) [µM]
NCCCN(CCCN)CCCNCc1c2ccccc2c(CNCCCN(CCCN)CCCN)c2ccccc12	23.4	28.4	> 100	22.4	85.6	54.9	17.9	> 100	
CCCCCCCCCCC(C)CCCCCCC(=O)OCC(COP(=O)([O-])OCC[N+](C)(C)C)OC(=O)CCCCCCC(C)CCCCCCCCCC (stereo not drawn)	> 100	> 100	> 100	> 100	> 100	> 100	> 100	> 100	
COc1ccc(C(=O)C(c2ccc(OC)cc2)C2(O)C(=O)Nc3c(C)cc(Cl)cc32)cc1 (stereo not drawn)	> 100	> 100	> 100	> 100	> 100	> 100		> 100	
Cc1cccc(C)c1NC(=O)CCCC(=O)CC(=O)/C=C/c1ccccc1	> 100		> 100	> 100	> 100	> 100	> 100	> 100	
CN(C)CC(/C(Cc1ccccc1)=N\NC(=O)c1ccncc1)c1ccccc1 (stereo not drawn)	> 100	68.1	> 100	93.4	> 100	42.1	46.2		
CC1Cc2c(N)nc(NN)nc2NC1=O (stereo not drawn)	> 100	> 100	> 100	> 100	> 100		> 100	> 100	
S=c1[nH]c(=S)c2sc(=S)n(-c3ccccc3)c2[nH]1	> 100	> 100	> 100	> 100	> 100	> 100	> 100	> 100	
CCOC(=O)/C(=C\c1ccc(OCc2ccccc2)c(OC)c1)C(=O)c1ccccc1	37.7	66.2	48.3	32.3	35.2	40.7	31.9	32.4	
Cc1cccc(C)c1NC(=O)/C(Cl)=C(/Cl)C(=O)O	31.3	35.7	17.4	29.7	38.6	31.5	34.5	21.7	66.2
COC(=O)/C=C(C)/C=C/c1cc(C(C)=O)c(C)o1	> 100	> 100	> 100	> 100	> 100	> 100		> 100	
C[C@]12CC[C@H](O)CC1=CC[C@@H]1C2CC[C@]2(C)c3nn(-c4ccc(F)cc4)nc3CC12 (stereo partly drawn)	> 100	> 100	> 100	> 100	> 100		> 100	> 100	> 100
COc1ccc2c([nH]c3cc(O)c(C)cc32)c1C=O	> 25		> 25	> 25		> 25	> 25	> 25	
O=C1CCCCCCCCCCC(=O)C2CCOCCOCCOCCC1Cc1cccc(n1)C2	> 100	> 100	> 100	> 100	> 100	> 100	> 100	> 100	

— PubChem BioAssay (NCI)
